Data reported in ChEMBL document CHEMBL1201862, “PubChem BioAssay data set” (2004).
Calls of active or inactive are those of the source.

What was measured:
Phosphomannomutase 2 = Phosphomannomutase 2 (Homo sapiens, UniProt O15305); assay: Counter screen SAR assay for PMM2 inhibitors via a fluorescence intensity assay. [Related pubchem assays (depositor defined):AID1545, AID1574]
[1] = target: Phosphoethanolamine/phosphocholine phosphatase (Homo sapiens, UniProt Q8TCT1); assay: SAR assay for compounds that inhibit PHOSPHO1. [Related pubchem assays (depositor defined):AID1545, AID1565, AID1574]
[2] = target: T1, Peroxisome proliferator-activated receptor gamma (Homo sapiens, UniProt P37231); assay: competitive ligand displacement at PPARg – biochemical, TR-FRET, LanthaScreen, PPARg partial agonist project, dose response (AID 504446)
T1 sequence (P37231 whole entry): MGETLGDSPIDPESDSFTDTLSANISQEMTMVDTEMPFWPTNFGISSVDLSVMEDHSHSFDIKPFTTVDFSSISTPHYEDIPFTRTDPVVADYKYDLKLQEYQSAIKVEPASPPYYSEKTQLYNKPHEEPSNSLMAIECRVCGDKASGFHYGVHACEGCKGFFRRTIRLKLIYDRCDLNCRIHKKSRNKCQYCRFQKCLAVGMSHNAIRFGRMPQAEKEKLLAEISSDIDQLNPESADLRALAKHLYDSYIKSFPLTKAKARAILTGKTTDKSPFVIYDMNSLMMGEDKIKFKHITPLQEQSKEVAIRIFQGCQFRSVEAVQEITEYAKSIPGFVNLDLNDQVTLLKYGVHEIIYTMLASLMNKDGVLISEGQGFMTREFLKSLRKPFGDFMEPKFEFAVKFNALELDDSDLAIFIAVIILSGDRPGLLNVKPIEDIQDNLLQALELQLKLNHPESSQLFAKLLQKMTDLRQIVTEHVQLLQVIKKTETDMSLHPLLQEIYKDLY

[3] = target: T1, Peroxisome proliferator-activated receptor gamma; assay: competitive ligand displacement at PPARg – biochemical, fluorescence polarization, PolarScreen, PPARg partial agonist project, dose response (AID 504453)
[4] = target: T1, Peroxisome proliferator-activated receptor gamma; assay: PPARg transcriptional activation, reporter cells – cell-based, luminescence, assay provider, dose response (AID 504447); type: functional
[5] = target: G-protein coupled receptor 55 (Homo sapiens, UniProt Q9Y2T6); assay: inhibition of LPI-stimulated GPR55 beta-arrestin translocation – imaging, U2OS, beta-arrestin-GFP, LPI agonist, primary screen (AID 2013); type: functional;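 note: antagonist potency measured as reduced agonist-driven arrestin aggregation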
HEK293 [6] = assay: cells; type: functional, cell-based; details: Homo sapiens
HEK293 [7] = assay: inhibition of NOD1-driven NF-kB reporter – cell-based, luminescence, uHTS, primary screen (AID 1578); type: functional; details: Homo sapiens
HEK293 [8] = assay: NOD2 signaling inhibitors in MDP-stimulated cells, cell-based, uHTS, luminescence (AID 2001); type: functional; details: Homo sapiens
HEK293 [9] = assay: cells; type: functional, cell-based; details: Homo sapiens; remark: listed apart in the source
[10] = target: Nucleotide-binding oligomerization domain-containing protein 2 (Homo sapiens, UniProt Q9HC29); assay: inhibition of NOD2-driven NF-kB reporter – cell-based, luminescence, uHTS, HEK293 (AID 1566); type: functional
HEK293 [11] = assay: cells; type: functional, cell-based; details: Homo sapiens; remark: listed apart in the source
cells [12] = type: functional, cell-based
cells [13] = type: functional, cell-based; remark: listed apart in the source
[14] = target: DNA damage-inducible transcript 3 protein (Mus musculus, UniProt P35639); type: functional, Cricetulus griseus
BJ [15] = assay: BJ-TERT fibroblast viability loss – cell-based, RAS-independent, luminescence, dose response (AID 1933); type: functional; details: Homo sapiens
Streptococcus = assay: GAS UMAA2166 growth inhibition – luminescence, BacTiterGlo, counter-screen for streptokinase expression inhibitor project, dose response (AID 1915); type: functional, organism-based;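 note: potency for reduction of bacterial viability or growth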
[16] = target: T2, Microphthalmia-associated transcription factor (Homo sapiens, UniProt O75030); assay: reducers of TRPM1 reporter luminescence, concentration series – cell-based, SK-MEL-5, cherry-picked, set 3, MITF inhibitor project, dose response (AID 493073); type: functional;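 note: SK-MEL-5 melanoma cells with luciferase driven by the MITF target TRPM1 promoter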
T2 sequence (O75030 whole entry): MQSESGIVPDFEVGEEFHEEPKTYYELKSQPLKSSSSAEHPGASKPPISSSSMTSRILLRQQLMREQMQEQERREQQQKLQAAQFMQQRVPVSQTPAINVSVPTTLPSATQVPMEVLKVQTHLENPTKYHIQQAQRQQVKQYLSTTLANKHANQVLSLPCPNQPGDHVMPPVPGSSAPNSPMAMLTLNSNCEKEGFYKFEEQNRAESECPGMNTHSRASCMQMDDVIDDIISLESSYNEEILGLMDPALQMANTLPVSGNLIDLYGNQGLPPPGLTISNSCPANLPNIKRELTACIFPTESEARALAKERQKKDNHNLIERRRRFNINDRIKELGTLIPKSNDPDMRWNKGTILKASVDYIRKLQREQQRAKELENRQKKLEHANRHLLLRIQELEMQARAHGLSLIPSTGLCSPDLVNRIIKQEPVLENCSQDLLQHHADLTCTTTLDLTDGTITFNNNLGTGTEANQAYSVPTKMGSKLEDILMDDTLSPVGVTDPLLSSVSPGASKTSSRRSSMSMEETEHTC

[17] = system: Streptococcus sp. 'group A'; assay: Streptococcus pyogenes SK(-)GAS viability under kanamycin – luminescence, BacTiterGlo, confirmation, counter-screen for streptokinase expression inhibitor project, dose response (AID 1900); type: functional, organism-based
[18] = HepG2 cell cytotoxicity, dose response, cytotoxicity control for non-replicating M. tuberculosis project (AID 489018); type: functional; details: Mycobacterium tuberculosis
BJ [19] = assay: growth inhibition of engineered Ras-driven BJ cells – cell-based, alamar blue fluorescence, cherrypicked samples, dose response (AID 2631); type: functional; details: Homo sapiens;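 note: confirmatory dose-response assay in RAS-dependent BJ fibroblasts engineered with TERT, LT and ST, with cytotoxicity read by fluorescence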
[20] = Vero E6 cell cytotoxicity, dose response, cytotoxicity control for non-replicating M. tuberculosis project, secondary assay (AID 492998); type: functional, VeroE6; details: Vero C1008
BJ [21] = assay: BJ-TERT-LT-ST fibroblast viability loss – cell-based, RAS-independent, luminescence, dose response (AID 1935); type: functional; details: Homo sapiens;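 note: BJ fibroblasts immortalized with TERT plus LT and ST oncogenes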
Vero = assay: cells; type: functional; details: Chlorocebus sabaeus
cells [22] = type: functional
BJ [23] = assay: cells; type: functional, cell-based; details: Homo sapiens
[24] = THP-1 cell cytotoxicity, dose response, cytotoxicity control for non-replicating M. tuberculosis project (AID 489025); type: functional
INS1 = assay: INS-1E survival protection against cytokine death – cell-based, luminescence, retest, dose response (AID 449756); type: functional; details: Rattus norvegicus;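 note: cell death triggered by IL-1 beta plus TNF-alpha plus IFN-gamma mixture; protective hits raise ATP signal compared with cytokine alone wells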
[25] = DRD fibroblast viability loss – cell-based, non-viral oncogenic, luminescence, dose response (AID 1934); type: functional; details: Homo sapiens

Chain of Phosphomannomutase 2 (O15305 whole entry): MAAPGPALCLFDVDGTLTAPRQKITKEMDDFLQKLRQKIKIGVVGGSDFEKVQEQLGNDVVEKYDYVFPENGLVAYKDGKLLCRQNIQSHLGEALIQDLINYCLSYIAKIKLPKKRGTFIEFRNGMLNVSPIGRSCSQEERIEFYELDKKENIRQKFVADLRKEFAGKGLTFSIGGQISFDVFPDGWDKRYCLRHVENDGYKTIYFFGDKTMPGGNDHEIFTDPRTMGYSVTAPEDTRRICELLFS
Chain of G-protein coupled receptor 55 (Q9Y2T6 whole entry): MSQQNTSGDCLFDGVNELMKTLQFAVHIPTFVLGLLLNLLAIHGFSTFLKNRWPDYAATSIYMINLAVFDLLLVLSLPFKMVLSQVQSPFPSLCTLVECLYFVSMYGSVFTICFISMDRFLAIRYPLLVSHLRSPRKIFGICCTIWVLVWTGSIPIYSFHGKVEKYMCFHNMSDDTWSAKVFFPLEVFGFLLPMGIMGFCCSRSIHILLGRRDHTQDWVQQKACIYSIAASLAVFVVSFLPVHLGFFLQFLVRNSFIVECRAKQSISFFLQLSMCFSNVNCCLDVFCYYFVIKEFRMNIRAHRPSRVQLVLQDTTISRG
Chain of DNA damage-inducible transcript 3 protein (P35639 whole entry): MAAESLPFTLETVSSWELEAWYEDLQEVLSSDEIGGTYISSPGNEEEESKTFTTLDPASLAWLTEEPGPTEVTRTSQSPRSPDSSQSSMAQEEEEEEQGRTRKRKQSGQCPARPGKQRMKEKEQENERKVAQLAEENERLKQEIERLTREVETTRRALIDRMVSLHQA
Chain of Nucleotide-binding oligomerization domain-containing protein 2 (Q9HC29 whole entry, the tested form may be a part): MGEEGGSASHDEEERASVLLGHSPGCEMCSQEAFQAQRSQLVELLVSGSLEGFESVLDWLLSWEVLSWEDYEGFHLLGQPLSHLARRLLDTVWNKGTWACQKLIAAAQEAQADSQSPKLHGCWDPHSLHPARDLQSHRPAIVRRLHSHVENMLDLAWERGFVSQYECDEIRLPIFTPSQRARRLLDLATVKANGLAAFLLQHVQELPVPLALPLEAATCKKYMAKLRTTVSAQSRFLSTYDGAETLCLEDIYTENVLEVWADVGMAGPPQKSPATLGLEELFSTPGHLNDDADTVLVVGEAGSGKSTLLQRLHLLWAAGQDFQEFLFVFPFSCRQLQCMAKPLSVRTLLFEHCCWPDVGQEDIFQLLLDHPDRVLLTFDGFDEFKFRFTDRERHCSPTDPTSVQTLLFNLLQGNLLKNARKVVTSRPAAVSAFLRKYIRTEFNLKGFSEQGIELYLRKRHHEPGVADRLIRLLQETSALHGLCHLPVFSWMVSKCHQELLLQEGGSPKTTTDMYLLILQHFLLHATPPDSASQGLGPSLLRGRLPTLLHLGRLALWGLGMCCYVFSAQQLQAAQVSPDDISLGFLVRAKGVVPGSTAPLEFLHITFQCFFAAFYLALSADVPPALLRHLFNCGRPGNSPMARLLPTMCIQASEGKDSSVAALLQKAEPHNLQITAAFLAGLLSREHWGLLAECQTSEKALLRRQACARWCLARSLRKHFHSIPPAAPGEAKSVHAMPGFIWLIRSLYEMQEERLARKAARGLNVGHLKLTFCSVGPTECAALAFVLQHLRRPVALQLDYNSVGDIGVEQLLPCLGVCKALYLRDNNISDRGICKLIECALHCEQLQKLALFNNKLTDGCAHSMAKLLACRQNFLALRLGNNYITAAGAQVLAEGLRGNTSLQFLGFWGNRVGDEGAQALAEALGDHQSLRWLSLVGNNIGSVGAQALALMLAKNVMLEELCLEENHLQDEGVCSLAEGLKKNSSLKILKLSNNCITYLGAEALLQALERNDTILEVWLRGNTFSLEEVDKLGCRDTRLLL
Chain of Phosphoethanolamine/phosphocholine phosphatase (Q8TCT1 whole entry): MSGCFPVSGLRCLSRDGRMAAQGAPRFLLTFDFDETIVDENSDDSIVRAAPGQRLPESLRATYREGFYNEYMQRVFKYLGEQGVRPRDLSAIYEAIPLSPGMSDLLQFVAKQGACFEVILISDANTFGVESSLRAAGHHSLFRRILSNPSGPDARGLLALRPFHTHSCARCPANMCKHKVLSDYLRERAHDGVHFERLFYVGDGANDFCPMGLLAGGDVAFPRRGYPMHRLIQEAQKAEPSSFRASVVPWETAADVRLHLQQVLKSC

CC(C)(C)c1ccc(-n2sc3ccccc3c2=O)cc1
inactive: IC50 [1] 54.3 µM
active: IC50 (Phosphomannomutase 2) 82.5 µM

Cc1ccc2nc(N3C(=O)C(O)=C(C(=O)c4ccc(C)o4)C3c3ccco3)sc2c1 (stereo unspecified)
active: IC50 [2] 2.6 µM | IC50 [3] 22 µM | EC50 [4] 18 µM

C=CCN1C(=O)/C(=C/Nc2ccc(Cc3ccncc3)cc2)C(=O)NC1=S
active: IC50 [5] 0.543 µM

O=C(N/N=C/c1ccccn1)c1ccc(Cl)cc1
> 350 µM (not active): EC50 (cells [12]) | EC50 (cells [13])
inactive: IC50 (HEK293 [6]) > 20 µM | EC50 (HEK293 [7]) > 20 µM | IC50 (HEK293 [8]) 7.14 µM | IC50 (HEK293 [9]) > 20 µM | EC50 [10] > 20 µM | IC50 (HEK293 [11]) > 20 µM

CCOC(=O)c1c(CN2CCOCC2)n(-c2ccccc2)c2cc(Br)c(O)cc12.Cl
10 µM: Absolute IC50 (CHOP) [14]

COc1cccc(C(=O)N/N=C(/c2ccccc2)c2ccccn2)c1
active: EC50 (BJ [15]) 2.69 µM | EC50 (Streptococcus) 18 µM | AC50 [16] 5.8 µM | EC50 [17] 14.2 µM | CC50 [18] 11.3 µM | EC50 (BJ [19]) 1.45 µM | CC50 [20] 1.98 µM | EC50 (BJ [21]) 3.26 µM | CC50 (Vero) 2.36 µM | IC50 (cells [22]) 2.04 µM | EC50 (BJ [23]) 4.58 µM | CC50 [24] 0.844 µM | EC50 (cells [13]) 9.7 µM | AC50 (INS1) 0.745 µM | EC50 [25] 2.82 µM
> 350 µM (not active): EC50 (cells [12])
